In patent publication US20160193240A1, “Ulmoside-A: Useful For Prevention Or Cure Of Metabolic Diseases” (COUNCIL OF SCIENTIFIC & INDUSTRIAL RESEARCH, priority 2013, published 2016):
Marks after values point to notes of the source that are not given here.

How the values were obtained:
C2C12 myotubes = assay: Fatty acid oxidation (14CO2 release from 14C palmitate) in C2C12 myotubes; type: cell-based, mouse; conditions: 10 nM
Procedure: B. ULMA enhances fatty acid oxidation in C2C12 myotubes. C2C12 myotubes plated in 12 well plates were treated with vehicle (0.1% vol/vol DMSO) or 10 nM ULMA in DMSO (final concentration of DMSO in all wells 0.1% for 2 h, 24 h or 48 h. Data represent mean±SEM of three independent experiments performed in triplicates. Following treatment, ^14CO2 release from these cells was measured and plotted. *p<0.05, **p<0.01, ***p<0.001 as determined by two tailed unpaired student's t-test.
D. siAdipoR1 eliminates ULMA induction of fatty acid oxidation. C2C12 myotubes were transfected with nonsilencing siC or siAdipoR1. 72 h after transfection, cells were treated for 24 h with 10 nM ULMA and fatty acid oxidation experiments were performed. Data is mean±SEM of three independent experiments performed in triplicates. **p<0.01 as determined by two tailed unpaired student's t-test.
Adiponectin is known to enhance glucose uptake and fatty acid oxidation in skeletal muscle and myotubes (T. Kadowaki, T. Yamauchi, N. Kubota, K. Hara, K. Ueki, K. Tobe. J Clin Invest. 116(7): 1784-1792. 2006; T. Yamauchi, J. Kamon, Y. Ito, A. Tsuchida, T. Yokomizok, S. Kita, T. Sugiyama, M. Miyagishi, K. Hara, M. Tsunodaq, K. Murakamiq, T. Ohteki, S. Uchida, S. Takekawa, H. Waki, N. H. Tsuno, Y. Shibata, Y. Terauchi, P. Froguel, K. Tobe, S. Koyasu, K. Taira, T. Kitamura, T. Shimizuk, R. Nagai, T. Kadowaki. Nature. 423(6941):762-769. 2003). […] Subsequently, the cells were lysed in 100 μl 0.5N NaOH and 5 μl lysate was used for protein concentration determination, and rest of the lysate was used to measure cellular radioactivity in a beta-counter (Beckman Coulter). […] Radioactivity that had become adsorbed onto the filter discs was then quantified by liquid scintillation counting in a beta-counter (Beckman Coulter). The cells were lysed with 200 μl 0.5N NaOH and 5 μl of the lysate was used for protein estimation using Bradford assay and the radioactivity was normalized with the protein content.

wistar rats = assay: Dexamethasone-mediated imbalance in serum Na, K level in rats; type: in vivo, rat; conditions: Dex + ULMA, 14 days
Procedure: Food intake was measured daily and the rats were weighed each week. The rats were fasted overnight (O/N) on day 14th and on day 15th oral glucose tolerance test was performed. Following oral glucose tolerance test (OGTT), rats were kept with food and water ad libitum for one day. On day 16th, rats were fasted again O/N and then euthanized. At autopsy, from 5 animals/group, tissues were collected and snap frozen in liquid nitrogen. Blood was collected from cardiac punctures. Plasma was separated from whole blood by centrifugation at 3000 rpm for 20 min immediately after collection of blood and stored at −80° C. until further analysis. Forelimb (quadriceps) skeletal muscles were processed for RNA and protein extraction, followed by quantitative real-time PCR (QRT-PCR) analysis. Two animals from each group were used for photography post autopsy.

Question: How did the “time of treatment at which induction of fatty acid oxidation was visible” value (C2C12 myotubes) turn out when O=C1c2c(cc(O)c([C@@H]3O[C@H](CO)[C@@H](O)[C@H](O)[C@H]3O)c2O)O[C@@H](c2ccc(O)c(O)c2)[C@@H]1O [ULMA, (2S,3S)-(+)-3′,4′,5,7-tetrahydroxydihydroflavonol-6-C-β-D-glucopyranoside] was run?
Answer: The value was no more than 2 h.

Question: And the fatty acid oxidation (C2C12 myotubes; 2 h, 24 h or 48 h, increased with time)?
Answer: Its fatty acid oxidation is “robustly induced”.

Question: What about the “ULMA-induced fatty acid oxidation with siAdipoR1 (not siC)” value (C2C12 myotubes; 24 h, 72 h after siRNA transfection) of the same compound?
Answer: Its value is “completely eliminated”.

Question: And the “Na (mmol/l)” value (wistar rats)?
Answer: Its value is 124 ± 3.7^a mmol/l.

Question: What about the serum K (wistar rats) of the same compound?
Answer: Its serum K is 3.93 ± 0.08 mM.
